According to ChEMBL document CHEMBL1134938, “Inhibition of HIV-1 nuclear import via schiff base formation with arylene bis(methylketone) compounds” (Bioorg Med Chem Lett, 2002):

Experiments:
[1] = tested on: Human immunodeficiency virus 1; experiment: Concentration required to block the Nuclear translocation of HIV-1 pre-integration complex with Reverse Transcriptase protein; NA: Not Active; type: functional, organism-based
[2] = tested on: Human immunodeficiency virus 1; experiment: Concentration required to block the Nuclear translocation of HIV-1 pre-integration complex with Reverse Transcriptase protein; type: functional, organism-based

| SMILES | IC50 [1] | IC50 [2] |
| --- | --- | --- |
| Cc1cc(Nc2cc(C(C)O)cc(C(C)O)c2)nc(N)[n+]1C (centres undefined) | Not Active |  |
| CC(=O)c1cc(Nc2cc(C)[n+](C)c(N)n2)cc(C(C)=O)c1 |  | 100 nM |
| COC(=O)c1cc(Nc2cc(C)[n+](C)c(N)n2)cc(C(=O)OC)c1 | Not Active |  |
| Cc1cc(Nc2cc(C(=O)O)cc(C(=O)O)c2)nc(N)[n+]1C |  | 100 nM |
